Laboratory results taken from the NIST ThermoML archive (doi:10.1021/je2006743).
± gives the expanded uncertainty stated by the source.

Settings: 101.33 kPa, Liquid; for viscosity: Falling or rolling sphere viscometry; for mass density: Vibrating tube method

Row | SMILES | viscosity (293.15 K) [mPa·s] | viscosity (303.15 K) [mPa·s] | mass density (313.14 K) [kg/m3] | viscosity (313.15 K) [mPa·s] | viscosity (323.15 K) [mPa·s] | viscosity (333.15 K) [mPa·s] | mass density (333.16 K) [kg/m3] | viscosity (343.15 K) [mPa·s] | mass density (323.13 K) [kg/m3] | also measured
1 | O=S(=O)([N-]S(=O)(=O)C(F)(F)F)C(F)(F)F.OCCC[n+]1ccccc1 | 160 ± 9 | 92.2 ± 4.3 | 1532.1 ± 2.8 | 57.7 ± 2.5 | 38.2 ± 1.6 | 29.4 ± 1.2 | 1513.8 ± 2.7 | 22.8 ± 1 | – | mass density (293.15 K): 1551 ± 2.8 kg/m3; mass density (303.24 K): 1541.7 ± 2.8 kg/m3; mass density (323.15 K): 1522.9 ± 2.7 kg/m3; mass density (343.13 K): 1504.7 ± 2.7 kg/m3
2 | CCCCCC[n+]1cccc(C)c1.O=S(=O)([N-]S(=O)(=O)C(F)(F)F)C(F)(F)F | 105 ± 5 | 64.2 ± 2.7 | 1338.4 ± 0.7 | 41.2 ± 1.7 | 28.3 ± 1.2 | 22.5 ± 0.9 | – | 17.5 ± 0.7 | 1329.7 ± 0.7 | mass density (293.14 K): 1356.1 ± 0.7 kg/m3; mass density (303.17 K): 1347.1 ± 0.7 kg/m3; mass density (333.22 K): 1321 ± 0.7 kg/m3; mass density (343 K): 1312.9 ± 0.6 kg/m3
3 | CC(=O)OCC[N+](C)(C)C.O=S(=O)([N-]S(=O)(=O)C(F)(F)F)C(F)(F)F | 309 ± 22 | 162 ± 9 | – | 90.7 ± 4.2 | 56.8 ± 2.4 | 38.5 ± 1.6 | – | 27.5 ± 1.2 | – | mass density (293.18 K): 1486.9 ± 2.6 kg/m3; mass density (303.19 K): 1477.3 ± 2.6 kg/m3; mass density (313.21 K): 1468 ± 2.5 kg/m3; mass density (323.16 K): 1458.8 ± 2.5 kg/m3; mass density (333.19 K): 1449.7 ± 2.5 kg/m3; mass density (343.21 K): 1440.5 ± 2.4 kg/m3
4 | CCC[N+](C)(C)CCO.O=S(=O)([N-]S(=O)(=O)C(F)(F)F)C(F)(F)F | 160 ± 9 | 92.7 ± 4.3 | – | 58.1 ± 2.4 | 38.7 ± 1.6 | 30.3 ± 1.3 | 1418.1 ± 0.8 | 22.9 ± 1 | – | mass density (293.16 K): 1453.6 ± 0.8 kg/m3; mass density (303.16 K): 1444.5 ± 0.8 kg/m3; mass density (313.11 K): 1435.7 ± 0.8 kg/m3; mass density (323.14 K): 1426.8 ± 0.8 kg/m3; mass density (343.14 K): 1408.7 ± 0.8 kg/m3
5 | CCCC[N+](C)(C)C.O=S(=O)([N-]S(=O)(=O)C(F)(F)F)C(F)(F)F [butyltrimethylammonium bis(trifluoromethylsulfonyl)imide] | 138 ± 7 | 82.3 ± 3.7 | – | 52.2 ± 2.2 | 35.5 ± 1.5 | 27.9 ± 1.2 | – | 21.5 ± 0.9 | 1370 ± 0.7 | mass density (293.26 K): 1396.5 ± 0.7 kg/m3; mass density (303.22 K): 1387.6 ± 0.7 kg/m3; mass density (313.03 K): 1379 ± 0.7 kg/m3; mass density (333.17 K): 1361.3 ± 0.7 kg/m3; mass density (343.18 K): 1352.8 ± 0.7 kg/m3
6 | CCCC[N+]1(C)CCCC1.O=S(=O)([N-]S(=O)(=O)C(F)(F)F)C(F)(F)F | 101 ± 5 | 63.8 ± 2.7 | – | 41.8 ± 1.7 | 28.9 ± 1.2 | 23.5 ± 1 | – | 18.6 ± 0.8 | – | mass density (293.09 K): 1398 ± 0.7 kg/m3; mass density (302.89 K): 1389.2 ± 0.7 kg/m3; mass density (313.59 K): 1379.8 ± 0.7 kg/m3; mass density (323.38 K): 1371.3 ± 0.7 kg/m3; mass density (332.57 K): 1363.1 ± 0.7 kg/m3; mass density (342.84 K): 1354.6 ± 0.7 kg/m3
